Experiments:
[1] = target: T1, alpha2B adrenergic receptor (Homo sapiens, UniProt P18089); assay: Receptor Selection and Amplification Technology (RSAT) assay, alpha2B; type: cell-based; settings: RSAT in NIH-3T3 cells; ratio of maximal effect of drug to that of standard full agonist brimonidine (UK14304); NA = not active at concentrations less than 10 micromolar
T1 construct: expressed in transfected cells; host or cells: NIH-3T3 cells
T1 sequence (P18089 1-450): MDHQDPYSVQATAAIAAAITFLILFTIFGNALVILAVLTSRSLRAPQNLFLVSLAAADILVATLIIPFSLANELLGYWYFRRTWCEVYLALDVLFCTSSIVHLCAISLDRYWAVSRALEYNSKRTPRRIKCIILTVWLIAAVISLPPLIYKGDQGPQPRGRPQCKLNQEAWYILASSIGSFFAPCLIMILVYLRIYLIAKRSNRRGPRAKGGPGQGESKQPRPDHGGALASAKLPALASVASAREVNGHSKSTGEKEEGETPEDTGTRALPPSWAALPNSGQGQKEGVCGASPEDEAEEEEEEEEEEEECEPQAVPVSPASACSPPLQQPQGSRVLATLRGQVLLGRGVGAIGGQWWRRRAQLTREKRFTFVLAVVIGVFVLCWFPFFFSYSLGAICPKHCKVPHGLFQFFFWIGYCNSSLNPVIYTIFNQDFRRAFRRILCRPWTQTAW
Description: (§1) The imidazole-2-thione compounds of the invention are agonists of alpha2 adrenergic receptors. […] Al., 1995, Pharmacol. Toxicol. 76, pp. 308-311 (incorporated herein by reference) and is also described below. Another reference pertinent to this assay is Conklin et al. (1993) Nature 363:274-6, also incorporated herein by reference.
(§2) Receptor Selection and Amplification Technology (RSAT) Assay
(§3) The RSAT assay measures a receptor-mediated loss of contact inhibition that results in selective proliferation of receptor-containing cells in a mixed population of confluent cells. The increase in cell number is assessed with an appropriate transfected marker gene such as β-galactosidase, the activity of which can be easily measured in a 96-well format. Receptors that activate the G protein, Gq, elicit this response. Alpha2 receptors, which normally couple to Gi, activate the RSAT response when coexpressed with a hybrid Gq protein that has a Gi receptor recognition domain, called Gq/i5.
(§4) NIH-3T3 cells are plated at a density of 2×10^6 cells in 15 cm dishes and maintained in Dulbecco's modified Eagle's medium supplemented with 10% calf serum. One day later, cells are cotransfected by calcium phosphate precipitation with mammalian expression plasmids encoding p-SV-β-galactosidase (5-10 μg), receptor (1-2 μg) and G protein (1-2 μg). 40 μg salmon sperm DNA may also be included in the transfection mixture. Fresh media is added on the following day and 1-2 days later, cells are harvested and frozen in 50 assay aliquots. Cells are thawed and 100 μl added to 100 μl aliquots of various concentrations of drugs in triplicate in 96-well dishes. Incubations continue 72-96 hr at 37° C. After washing with phosphate-buffered saline, β-galactosidase enzyme activity is determined by adding 200 μl of the chromogenic substrate (consisting of 3.5 mM o-nitrophenyl-β-D-galactopyranoside and 0.5% nonidet P-40 in phosphate buffered saline), incubating overnight at 30° C. and measuring optical density at 420 nm. The absorbance is a measure of enzyme activity, which depends on cell number and reflects a receptor-mediated cell proliferation. The efficacy or intrinsic activity is calculated as a ratio of the maximal effect of the drug to the maximal effect of a standard full agonist for each receptor subtype. […]
The RSAT assay measures a receptor-mediated loss of contact inhibition that results in selective proliferation of receptor-containing cells in a mixed population of confluent cells. The increase in cell number is assessed with an appropriate transfected marker gene such as ∃-galactosidase, the activity of which can be easily measured in a 96-well format. […]

[2] = target: T2, alpha2A adrenergic receptor (Homo sapiens, UniProt P08913); assay: Receptor Selection and Amplification Technology (RSAT) assay, alpha2A; type: cell-based; settings: RSAT in NIH-3T3 cells; ratio of maximal effect of drug to that of standard full agonist brimonidine (UK14304); NA = not active at concentrations less than 10 micromolar
T2 construct: expressed in transfected cells; host or cells: NIH-3T3 cells
T2 sequence (P08913 1-465): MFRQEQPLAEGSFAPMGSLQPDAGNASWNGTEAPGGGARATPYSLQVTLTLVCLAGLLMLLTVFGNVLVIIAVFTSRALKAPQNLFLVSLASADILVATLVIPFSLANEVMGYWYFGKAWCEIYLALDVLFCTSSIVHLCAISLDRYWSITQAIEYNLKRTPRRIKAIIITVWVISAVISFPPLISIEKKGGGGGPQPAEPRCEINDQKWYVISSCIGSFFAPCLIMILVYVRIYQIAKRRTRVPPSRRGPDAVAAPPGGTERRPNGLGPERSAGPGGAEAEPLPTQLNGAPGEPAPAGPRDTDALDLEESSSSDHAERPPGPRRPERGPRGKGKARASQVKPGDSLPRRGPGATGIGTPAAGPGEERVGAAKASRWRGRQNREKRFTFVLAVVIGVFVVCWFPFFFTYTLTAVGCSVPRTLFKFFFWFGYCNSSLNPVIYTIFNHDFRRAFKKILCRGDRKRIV
Description: as §1, §2, §3
as §4, with “Fresh media is added on the following day and 1-2 days later, cells are harvested and frozen in 50 assay aliquots. Cells are thawed and 100 μl added to 100 μl aliquots of various concentrations of drugs in triplicate in 96-well dishes. Incubations continue 72-96 hr at 37° C.” left out

[3] = target: T3, alpha2C adrenergic receptor (Homo sapiens, UniProt P18825); assay: Receptor Selection and Amplification Technology (RSAT) assay, alpha2C; type: cell-based; settings: RSAT in NIH-3T3 cells; ratio of maximal effect of drug to that of standard full agonist brimonidine (UK14304); NA = not active at concentrations less than 10 micromolar
T3 construct: expressed in transfected cells; host or cells: NIH-3T3 cells
T3 sequence (P18825 1-462): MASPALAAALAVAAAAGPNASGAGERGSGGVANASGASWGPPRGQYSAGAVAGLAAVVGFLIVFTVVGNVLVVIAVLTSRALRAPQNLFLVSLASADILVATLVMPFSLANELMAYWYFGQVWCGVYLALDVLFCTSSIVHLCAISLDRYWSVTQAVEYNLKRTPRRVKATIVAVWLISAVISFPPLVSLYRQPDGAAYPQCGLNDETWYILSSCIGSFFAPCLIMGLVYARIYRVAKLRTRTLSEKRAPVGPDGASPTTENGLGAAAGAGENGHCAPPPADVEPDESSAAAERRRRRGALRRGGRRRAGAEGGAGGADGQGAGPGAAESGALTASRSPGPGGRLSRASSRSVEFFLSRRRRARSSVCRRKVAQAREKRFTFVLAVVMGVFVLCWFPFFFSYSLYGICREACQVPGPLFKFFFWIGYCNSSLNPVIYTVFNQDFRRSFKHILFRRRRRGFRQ
Description: as §1, §2, §3
as §4, with “Fresh media is added on the following day and 1-2 days later, cells are harvested and frozen in 50 assay aliquots. Cells are thawed and 100 μl added to 100 μl aliquots of various concentrations of drugs in triplicate in 96-well dishes. Incubations continue 72-96 hr at 37° C.” left out

male Sprague-Dawley rats = assay: Sedative activity (exploratory behavior/locomotor skills); type: in vivo, rat; settings: intraperitoneally, up to a dose of 1 mg/kg, 30 minutes after injection
Experimental: To test sedation, six male Sprague-Dawley rats are given up to 3 mg/kg of the test compound in a saline or DMSO vehicle by intraperitoneal injection (i.p.). Sedation is graded 30 minutes following administration of the drug by monitoring locomotor skills as follows.
The Sprague-Dawley rats are weighed and 1 ml/kg body weight of an appropriate concentration (ie. 3 mg/ml for a final dose of 3 mg/kg) drug solution is injected intraperitoneally. Typically the test compound is formulated in approximately 10 to 50% DMSO. The results are compared to controls that are injected with 1 ml/kg saline or 10 to 50% DMSO. Rat activity is then determined 30 minutes after injection of the drug solution. Rats are placed in a dark covered chamber and a digicom analyzer (Omnitech Electronic) quantitates their exploratory behavior for a five-minute period. The machine records each time the rat interrupts an array of 32 photoelectric beams in the X and Y orientation.

CC(c1ccccc1)c1c[nH]c(=S)[nH]1 (stereo not drawn) [Compound 4, 4-(1-phenyl-ethyl)-1,3-dihydro-imidazole-2-thione]
Intrinsic Activity Alpha 2B [1]: 1.11

CC(c1c[nH]c(=S)[nH]1)c1cccc(C(F)(F)F)c1F (stereo not drawn) [Compound 3, 4-[1-(2-fluoro-3-trifluoromethyl-phenyl)-ethyl]-1,3-dihydro-imidazole-2-thione]
Intrinsic Activity Alpha 2A [2]: 0.88
Intrinsic Activity Alpha 2B [1]: 1.04
Intrinsic Activity Alpha 2C [3]: 0.84
sedative effect (male Sprague-Dawley rats): no sedative effect

CC(c1c[nH]c(=S)[nH]1)c1cccc(Cl)c1Cl (stereo not drawn) [Compound 1, 4-[1-(2,3-dichloro-phenyl)-ethyl]-1,3-dihydro-imidazole-2-thione]
Intrinsic Activity Alpha 2A [2]: 0.87
Intrinsic Activity Alpha 2B [1]: 0.85
Intrinsic Activity Alpha 2C [3]: 1.03
sedative effect (male Sprague-Dawley rats): no sedative effect

CC(c1c[nH]c(=S)[nH]1)c1cccc(F)c1F (stereo not drawn) [Compound 2, 4-[1-(2,3-difluoro-phenyl)-ethyl]-1,3-dihydro-imidazole-2-thione]
Intrinsic Activity Alpha 2A [2]: 0.66
Intrinsic Activity Alpha 2B [1]: 0.99
Intrinsic Activity Alpha 2C [3]: 0.83
